Results on 14 compounds are retold here after patent US11331369B2, “Endoparasitic depsipeptides” (Zoetis Services LLC, priority 2017, dated 2022).

Molecules are shown by their SMILES.

For this assay, the system named is microfilariae of Dirofilaria immitis. The experiment in a line: Dirofilaria immitis, Microfilaria (DiMF) In vitro Assay. The settings on record: 72 h, read-out: DiMF Minimum Effective Dose (MED), approximately 72 hours incubation, microfilariae assessed for survival or paralysis. It counts as cell-based.

Consider `CC(C)C[C@H]1C(=O)O[C@H](Cc2ccc(CN3CCS(=O)(=O)c4cccnc43)cc2)C(=O)N(C)[C@@H](CC(C)C)C(=O)O[C@H](C)C(=O)N(C)[C@@H](CC(C)C)C(=O)O[C@H](Cc2ccc(CN3CCS(=O)(=O)c4cccnc43)cc2)C(=O)N(C)[C@@H](CC(C)C)C(=O)O[C@H](C)C(=O)N1C` [Example 9-62, (3S,6R,9S,12R,15S,18R,21S,24R)-6,18-bis(4-((1,1-dioxido-2,3-dihydro-4H-pyrido[3,2-b][1,4]thiazin-4-yl)methyl)benzyl)-3,9,15,21-tetraisobutyl-4,10,12,16,22,24-hexamethyl-1,7,13,19-tetraoxa-4,10,16,22-tetraazacyclotetracosan-2,5,8,11,14,17,20,23-octaone], for which the minimal effective concentration lay in the range of 0.01 to 0.1 µM.

Consider `CC(C)C[C@H]1C(=O)O[C@H](Cc2ccc(CN3CCOc4cccnc43)cc2)C(=O)N(C)[C@@H](CC(C)C)C(=O)O[C@H](C)C(=O)N(C)[C@@H](CC(C)C)C(=O)O[C@H](Cc2ccc(CN3CCOc4cccnc43)cc2)C(=O)N(C)[C@@H](CC(C)C)C(=O)O[C@H](C)C(=O)N1C` [Example 9-64, (3S,6R,9S,12R,15S,18R,21S,24R)-6,18-bis[[4-(2,3-dihydropyrido[3,2-b][1,4]oxazin-4-ylmethyl)phenyl]methyl]-3,9,15,21-tetraisobutyl-4,10,12,16,22,24-hexamethyl-1,7,13,19-tetraoxa-4,10,16,22-tetrazacyclotetracosane-2,5,8,11,14,17,20,23-octaone], for which the minimal effective concentration fell in the range of 0.01 to 0.1 µM.

With `CC(C)C[C@H]1C(=O)O[C@H](C)C(=O)N(C)[C@@H](CC(C)C)C(=O)O[C@H](Cc2ccccc2)C(=O)N(C)[C@@H](CC(C)C)C(=O)O[C@H](C)C(=O)N(C)[C@@H](CC(C)C)C(=O)O[C@@H](Cc2ccc(CN3CCCCC3)cc2)C(=O)N1C` [Example 10-2, (3S,6R,9S,12R,15S,18S,21S,24R)-6-benzyl-3,9,15,21-tetraisobutyl-4,10,12,16,22,24-hexamethyl-18-(4-(piperidin-1-ylmethyl)benzyl)-1,7,13,19-tetraoxa-4,10,16,22-tetraazacyclotetracosan-2,5,8,11,14,17,20,23-octaone], the minimal effective concentration was 0.01 to 0.1 µM.

For `CC(C)C[C@H]1C(=O)O[C@H](Cc2ccc(CN3CCN(C(=O)OC(C)(C)C)CC3)cc2)C(=O)N(C)[C@@H](CC(C)C)C(=O)O[C@H](C)C(=O)N(C)[C@@H](CC(C)C)C(=O)O[C@H](Cc2ccccc2)C(=O)N(C)[C@@H](CC(C)C)C(=O)O[C@H](C)C(=O)N1C` [Example 10-9, tert-butyl 4-(4-(((2R,5S,8R,11S,14R,17S,20R,23S)-14-benzyl-5,11,17,23-tetraisobutyl-4,8,10,16,20,22-hexamethyl-3,6,9,12,15,18,21,24-octaoxo-1,7,13,19-tetraoxa-4,10,16,22-tetraazacyclotetracosan-2-yl)methyl)benzyl)piperazine-1-carboxylate], the minimal effective concentration fell in the range of 0.01 to 0.1 µM.

Consider `CC(C)C[C@H]1C(=O)O[C@H](Cc2ccc(CN3CCN(S(C)(=O)=O)CC3)cc2)C(=O)N(C)[C@@H](CC(C)C)C(=O)O[C@H](C)C(=O)N(C)[C@@H](CC(C)C)C(=O)O[C@H](Cc2ccccc2)C(=O)N(C)[C@@H](CC(C)C)C(=O)O[C@H](C)C(=O)N1C` [Example 10-10, (3S,6R,9S,12R,15S,18R,21S,24R)-6-benzyl-3,9,15,21-tetraisobutyl-4,10,12,16,22,24-hexamethyl-18-(4-((4-(methylsulfonyl)piperazin-1-yl)methyl)benzyl)-1,7,13,19-tetraoxa-4,10,16,22-tetraazacyclotetracosan-2,5,8,11,14,17,20,23-octaone], for which the minimal effective concentration lay in the range of 0.01 to 0.1 µM.

Turning to `CC(C)C[C@H]1C(=O)O[C@H](Cc2ccc(Cn3c(=O)ccc4ccccc43)cc2)C(=O)N(C)[C@@H](CC(C)C)C(=O)O[C@H](C)C(=O)N(C)[C@@H](CC(C)C)C(=O)O[C@H](Cc2ccccc2)C(=O)N(C)[C@@H](CC(C)C)C(=O)O[C@H](C)C(=O)N1C` [Example 10-12, (3S,6R,9S,12R,15S,18R,21S,24R)-6-benzyl-3,9,15,21-tetraisobutyl-4,10,12,16,22,24-hexamethyl-18-(4-((2-oxoquinolin-1 (2H)-yl)methyl)benzyl)-1,7,13,19-tetraoxa-4,10,16,22-tetraazacyclotetracosan-2,5,8,11,14,17,20,23-octaone], the minimal effective concentration fell in the range of 0.01 to 0.1 µM.

Take `CC(C)C[C@H]1C(=O)O[C@H](Cc2ccc(Cn3ccc4cccnc43)cc2)C(=O)N(C)[C@@H](CC(C)C)C(=O)O[C@H](C)C(=O)N(C)[C@@H](CC(C)C)C(=O)O[C@H](Cc2ccccc2)C(=O)N(C)[C@@H](CC(C)C)C(=O)O[C@H](C)C(=O)N1C` [Example 10-14, (3S,6R,9S,12R,15S,18R,21S,24R)-6-(4-((1H-pyrrolo[2,3-b]pyridin-1-yl)methyl)benzyl)-18-benzyl-3,9,15,21-tetraisobutyl-4,10,12,16,22,24-hexamethyl-1,7,13,19-tetraoxa-4,10,16,22-tetraazacyclotetracosan-2,5,8,11,14,17,20,23-octaone]: the minimal effective concentration was 0.01 to 0.1 µM.

Take `CC(C)C[C@H]1C(=O)O[C@H](Cc2ccc(CN3CCOc4ccccc43)cc2)C(=O)N(C)[C@@H](CC(C)C)C(=O)O[C@H](C)C(=O)N(C)[C@@H](CC(C)C)C(=O)O[C@H](Cc2ccccc2)C(=O)N(C)[C@@H](CC(C)C)C(=O)O[C@H](C)C(=O)N1C` [Example 10-16, (3S,6R,9S,12R,15S,18R,21S,24R)-6-benzyl-18-(4-((2,3-dihydro-4H-benzo[b][1,4]oxazin-4-yl)methyl)benzyl)-3,9,15,21-tetraisobutyl-4,10,12,16,22,24-hexamethyl-1,7,13,19-tetraoxa-4,10,16,22-tetraazacyclotetracosan-2,5,8,11,14,17,20,23-octaone]: the minimal effective concentration lay in the range of 0.01 to 0.1 µM.

On to `CC(C)C[C@H]1C(=O)O[C@H](Cc2ccc(Cn3cc(CO)nn3)cc2)C(=O)N(C)[C@@H](CC(C)C)C(=O)O[C@H](C)C(=O)N(C)[C@@H](CC(C)C)C(=O)O[C@H](Cc2ccccc2)C(=O)N(C)[C@@H](CC(C)C)C(=O)O[C@H](C)C(=O)N1C` [Example 10-19, (3S,6R,9S,12R,15S,18R,21S,24R)-6-benzyl-18-(4-((4-(hydroxymethyl)-1H-1,2,3-triazol-1-yl)methyl)benzyl)-3,9,15,21-tetraisobutyl-4,10,12,16,22,24-hexamethyl-1,7,13,19-tetraoxa-4,10,16,22-tetraazacyclotetracosan-2,5,8,11,14,17,20,23-octaone], for which the minimal effective concentration was 0.01 to 0.1 µM.

As for `Cc1ccc(OCc2cn(Cc3ccc(C[C@H]4OC(=O)[C@H](CC(C)C)N(C)C(=O)[C@@H](C)OC(=O)[C@H](CC(C)C)N(C)C(=O)[C@@H](Cc5ccccc5)OC(=O)[C@H](CC(C)C)N(C)C(=O)[C@@H](C)OC(=O)[C@H](CC(C)C)N(C)C4=O)cc3)nn2)cc1` [Example 10-21, (3S,6R,9S,12R,15S,18R,21S,24R)-6-benzyl-3,9,15,21-tetraisobutyl-4,10,12,16,22,24-hexamethyl-18-(4-((4-((p-tolyloxy)methyl)-1H-1,2,3-triazol-1-yl)methyl)benzyl)-1,7,13,19-tetraoxa-4,10,16,22-tetraazacyclotetracosan-2,5,8,11,14,17,20,23-octaone], the minimal effective concentration was 0.01 to 0.1 µM.

Consider `COc1ccc(OCc2cn(Cc3ccc(C[C@H]4OC(=O)[C@H](CC(C)C)N(C)C(=O)[C@@H](C)OC(=O)[C@H](CC(C)C)N(C)C(=O)[C@@H](Cc5ccccc5)OC(=O)[C@H](CC(C)C)N(C)C(=O)[C@@H](C)OC(=O)[C@H](CC(C)C)N(C)C4=O)cc3)nn2)cc1` [Example 10-22, (3S,6R,9S,12R,15S,18R,21S,24R)-6-benzyl-3,9,15,21-tetraisobutyl-18-(4-((4-((4-methoxyphenoxy)methyl)-1H-1,2,3-triazol-1-yl)methyl)benzyl)-4,10,12,16,22,24-hexamethyl-1,7,13,19-tetraoxa-4,10,16,22-tetraazacyclotetracosan-2,5,8,11,14,17,20,23-octaone], for which the minimal effective concentration was in the range of 0.01 to 0.1 µM.

For the compound `CC(C)C[C@H]1C(=O)O[C@H](Cc2ccc(Cn3cc(COc4cccc(C#N)c4)nn3)cc2)C(=O)N(C)[C@@H](CC(C)C)C(=O)O[C@H](C)C(=O)N(C)[C@@H](CC(C)C)C(=O)O[C@H](Cc2ccccc2)C(=O)N(C)[C@@H](CC(C)C)C(=O)O[C@H](C)C(=O)N1C` [Example 10-23, 3-((1-(4-(((2R,5S,8R,11S,14R,17S,20R,23S)-14-benzyl-5,11,17,23-tetraisobutyl-4,8,10,16,20,22-hexamethyl-3,6,9,12,15,18,21,24-octaoxo-1,7,13,19-tetraoxa-4,10,16,22-tetraazacyclotetracosan-2-yl)methyl)benzyl)-1H-1,2,3-triazol-4-yl)methoxy)benzonitrile], the minimal effective concentration was 0.01 to 0.1 µM.

For the compound `CC(C)C[C@H]1C(=O)O[C@H](Cc2ccc(CN3CC(CO)OC3=O)cc2)C(=O)N(C)[C@@H](CC(C)C)C(=O)O[C@H](C)C(=O)N(C)[C@@H](CC(C)C)C(=O)O[C@H](Cc2ccccc2)C(=O)N(C)[C@@H](CC(C)C)C(=O)O[C@H](C)C(=O)N1C` (stereo partly drawn) [Example 10-24, (3S,6R,9S,12R,15S,18R,21S,24R)-6-benzyl-18-(4-((5-(hydroxymethyl)-2-oxooxazolidin-3-yl)methyl)benzyl)-3,9,15,21-tetraisobutyl-4,10,12,16,22,24-hexamethyl-1,7,13,19-tetraoxa-4,10,16,22-tetraazacyclotetracosan-2,5,8,11,14,17,20,23-octaone], the minimal effective concentration was in the range of 0.01 to 0.1 µM.

As for `CC(C)C[C@H]1C(=O)O[C@H](Cc2ccc(CN3CCCOC3=O)cc2)C(=O)N(C)[C@@H](CC(C)C)C(=O)O[C@H](C)C(=O)N(C)[C@@H](CC(C)C)C(=O)O[C@H](Cc2ccccc2)C(=O)N(C)[C@@H](CC(C)C)C(=O)O[C@H](C)C(=O)N1C` [Example 10-25, (3S,6R,9S,12R,15S,18R,21S,24R)-6-benzyl-3,9,15,21-tetraisobutyl-4,10,12,16,22,24-hexamethyl-18-(4-((2-oxo-1,3-oxazinan-3-yl)methyl)benzyl)-1,7,13,19-tetraoxa-4,10,16,22-tetraazacyclotetracosan-2,5,8,11,14,17,20,23-octaone], the minimal effective concentration fell in the range of 0.01 to 0.1 µM.
